We go through two compounds from patent publication US9562891B2, “Method for screening patient-specific anti-cancer agent using limiting dilution assay” (Samsung Life Public Welfare Foundation, priority 2013, dated 2017).

The subject of experiment [1] is patient-derived cancer cells (brain glioblastoma). Kind of experiment: Three-dimensional culture of patient-derived cancer cells in alginate on micropillar chip, Calcein AM sphere staining. It is filed as cell-based, human. How it is done:
The suspension-cultured neurospheres obtained in Example above were collected and treated with 0.025% trypsin/EDTA for 3 minutes, thereby obtaining cell suspensions at a level of a single cell. The cell suspensions were prepared at a concentration of 4 cells/30 nl, 10 cells/30 nl, 20 cells/30 nl, 40 cells/30 nl, 100 cells/30 nl and 200 cells/30 nl, respectively. 50 μL of 3% alginate (Sigma-Aldrich, US) and 100 μL distilled water were mixed to prepare 1% alginate, and then the cell suspensions and 1% alginate as prepared above were mixed together in the same amount. The prepared alginate/cell mixture was discharged onto the surface-modified micropillar using a microarray spotter (Samsung Electro-Mechanics Co., Korea), followed by gelation for 2 minutes so that an alginate gel containing 2, 5, 10, 20, 50 or 100 cells was fixed onto each micropillar (FIG. 1). Each of 950 nl of 2 μM, 5 μM or 10 μM SU11274 (Sigma-Aldrich, US) was dispersed into a microwell chip (Samsung Electro-Mechanics Co., Korea) and the micropillar chip was subjected to stamping. […] 4 doubling time incubation was performed until spheres were formed from the patient-derived cancer cells, and the micropillar chip was subjected to fluorescence staining. […]

In experiment [2] the test system is 775T cell line (patient-derived brain glioblastoma). Kind of experiment: Screening of anti-cancer agent using limiting dilution assay (sphere formation, ratio of non-formed wells). Format: cell-based, human. The conditions noted are these: 775T as compared to 448T and 464T cell lines; cultured 2 to 3 weeks (FIG. 5). The source says:
The patient-specific anti-cancer agent was screened by using a limiting dilution assay according to the above-described Examples, and a result obtained therefrom was compared with a result separately obtained by a screening method using a 96 well plate. Alginate gel containing 2, 5, 10, 20, 50 or 100 cells was discharged onto each micropillar and was subjected to stamping into a culture medium containing the anti-cancer agent. The anti-cancer agent SU11274 and PHA665752, which is c-Met inhibitor, was treated for each concentration. A size of spheres formed after being cultured for 2 to 3 weeks was automatically measured and analyzed. Whether or not the sphere is formed was determined by culturing cells of the experimental group and the control group up to 4 doubling times and comparing sphere area max values of the biggest spheres among the spheres formed in each well, as shown in FIG. 4. […] Here, the well having sphere area max value smaller than the reference value was determined that the spheres were not formed in the well (non-formed). The well having sphere area max value as the same as the average value of the sphere area max of the control group or higher than that was determined that the sphere were formed in the well (formed). […]

Regarding `Cc1[nH]c(/C=C2\C(=O)Nc3ccc(S(=O)(=O)N(C)c4cccc(Cl)c4)cc32)c(C)c1C(=O)N1CCN(C)CC1` [SU11274], the “survival rate of the cancer cells” value in experiment [1] (2 μM, 5 μM or 10 μM, 2-100 cells per alginate gel, cultured 12 days, Calcein AM staining (FIG. 2)) is recorded as “survival rate of the cancer cells were decreased”. The “sphere formation (maximum sphere area)” value in experiment [1] (5 uM, 12 days, control group sphere areas increased to a maximum of 10.14 times (FIG. 3)) is recorded as “did not form the spheres”. In experiment [2], the “sensitivity of cell line to anti-cancer effect in limiting dilution assay” value was “most sensitive anti-cancer effects”.

As to `Cc1[nH]c(/C=C2\C(=O)Nc3ccc(S(=O)(=O)Cc4c(Cl)cccc4Cl)cc32)c(C)c1C(=O)N1CCC[C@@H]1CN1CCCC1` [PHA665752], in experiment [2], the “sensitivity of cell line to anti-cancer effect in limiting dilution assay” value is “most sensitive anti-cancer effects”.
